From patent US7649093B2, “Naphthalene compounds as selective estrogen receptor modulators” (Glaxo Smith Kline LLC, priority 2004, dated 2010)

SMILES	melting point [°C]
Cc1cc2ccccc2c(Oc2ccc(/C=C/C(=O)O)cc2)c1-c1ccccc1 [Example 15, (2E)-3-{4-[(3-Methyl-2-phenyl-1-naphthalenyl)oxy]phenyl}-2-propenoic acid]	224 to 225
CC(C)c1cc2cc(O)ccc2c(Oc2ccc(/C=C/C(=O)O)cc2)c1-c1ccccc1 [Example 13, (2E)-3-(4-{[6-Hydroxy-3-(1-methylethyl)-2-phenyl-1-naphthalenyl]oxy}phenyl)-2-propenoic acid]	198 to 199
CCCCc1cc2ccccc2c(Oc2ccc(/C=C/C(=O)O)cc2)c1-c1ccc(O)cc1	107 to 109
CCc1cc2cc(O)ccc2c(Oc2ccc(/C=C/C(=O)O)cc2)c1-c1ccccc1 [Example 11, (2E)-3-{4-[(3-Ethyl-6-hydroxy-2-phenyl-1-naphthalenyl)oxy]phenyl}-2-propenoic acid]	188 to 190
COCc1cc2ccccc2c(Oc2ccc(/C=C/C(=O)O)cc2)c1-c1ccccc1	76 to 79
CCCc1cc2cc(O)ccc2c(Oc2ccc(/C=C/C(=O)O)cc2)c1-c1ccccc1 [Example 16, (2E)-3-{4-[(6-Hydroxy-2-phenyl-3-propyl-1-naphthalenyl)oxy]phenyl}-2-propenoic acid]	120 to 122
Cc1cc2cc(O)ccc2c(Oc2ccc(/C=C/C(=O)O)cc2)c1-c1ccc(O)cc1 [Example 10, (2E)-3-(4-{[6-Hydroxy-2-(4-hydroxyphenyl)-3-methyl-1-naphthalenyl]oxy}phenyl)-2-propenoic acid]	162 to 164
CCCCCc1cc2cc(O)ccc2c(Oc2ccc(/C=C/C(=O)O)cc2)c1-c1ccccc1 [Example 18, (2E)-3-{4-[(6-Hydroxy-3-pentyl-2-phenyl-1-naphthalenyl)oxy]phenyl}-2-propenoic acid]	110 to 113
CC(C)Cc1cc2cc(O)ccc2c(Oc2ccc(/C=C/C(=O)O)cc2)c1-c1ccccc1 [Example 17, (2E)-3-(4-{[6-Hydroxy-3-(2-methylpropyl)-2-phenyl-1-naphthalenyl]oxy}phenyl)-2-propenoic acid]	126 to 128
CCc1cc2cc(O)ccc2c(Oc2ccc(/C=C/C(=O)N3CCN(C)CC3)cc2)c1-c1ccccc1 [Example 12, 7-Ethyl-5-({4-[(1E)-3-(4-methyl-1-piperazinyl)-3-oxo-1-propen-1-yl]phenyl}oxy)-6-phenyl-2-naphthalenol]	195 to 196
CCCCc1cc2cc(O)ccc2c(Oc2ccc(/C=C/C(=O)O)cc2)c1-c1ccccc1 [Example 14, (2E)-3-{4-[(3-Butyl-6-hydroxy-2-phenyl-1-naphthalenyl)oxy]phenyl}-2-propenoic acid]	128 to 130

Further lines, results first:

melting point [°C]	SMILES
118 to 120	CCCc1cc2cc(O)c(F)cc2c(Oc2ccc(/C=C/C(=O)O)cc2)c1-c1ccccc1 [Example 20, (2E)-3-{4-[(7-Fluoro-6-hydroxy-2-phenyl-3-propyl-1-naphthalenyl)oxy]phenyl}-2-propenoic acid]
242 to 243	O=C(O)/C=C/c1ccc(Oc2c(-c3ccccc3)c(C3CC3)cc3cc(O)ccc23)cc1 [Example 22, (2E)-3-{4-[(3-Cyclopropyl-6-hydroxy-2-phenyl-1-naphthalenyl)oxy]phenyl}-2-propenoic acid]
118 to 120	O=C(O)/C=C/c1ccc(Oc2c(-c3ccccc3)c(CCC(F)(F)F)cc3cc(O)ccc23)cc1 [Example 19, (2E)-3-(4-{[6-Hydroxy-2-phenyl-3-(3,3,3-trifluoropropyl)-1-naphthalenyl]oxy}phenyl)-2-propenoic acid]
121 to 124	CCCc1cc2cc(O)c(F)cc2c(Oc2ccc(/C=C/C(N)=O)cc2)c1-c1ccccc1 [Example 25, (2E)-3-{4-[(7-Fluoro-6-hydroxy-2-phenyl-3-propyl-1-naphthalenyl)oxy]phenyl}-2-propenamide]
210 to 211	O=C(O)/C=C/c1ccc(Oc2c(-c3ccccc3)c(C(F)(F)F)cc3ccccc23)cc1 [Example 27, (2E)-3-(4-{[2-Phenyl-3-(trifluoromethyl)-1-naphthalenyl]oxy}phenyl)-2-propenoic acid]
163 to 164	CCCCCCCCc1cc2cc(O)ccc2c(Oc2ccc(/C=C/C(=O)O)cc2)c1-c1ccccc1 [Example 29, (2E)-3-{4-[(6-Hydroxy-3-octyl-2-phenyl-1-naphthalenyl)oxy]phenyl}-2-propenoic acid]
160 to 161	CCCCc1cc2ccccc2c(Oc2ccc(/C=C/C(=O)O)cc2)c1-c1ccccc1 [Example 26, (2E)-3-{4-[(3-Butyl-2-phenyl-1-naphthalenyl)oxy]phenyl}-2-propenoic acid]
169 to 170	CCCCc1cc2ccccc2c(Oc2ccc(/C=C/C(=O)O)cc2)c1-c1ccc(F)cc1 [Example 24, (2E)-3-(4-{[3-Butyl-2-(4-fluorophenyl)-1-naphthalenyl]oxy}phenyl)-2-propenoic acid]
244 to 245	O=C(O)c1ccc(Oc2c(-c3ccc(O)cc3)c(C(F)(F)F)cc3ccccc23)cc1 [Example 28, 4-{[2-(4-Hydroxyphenyl)-3-(trifluoromethyl)-1-naphthalenyl]oxy}benzoic acid]
